{"source": "patent US6800651B2", "about": "(Eli Lilly and Company, priority 2000, dated 2004)", "key": {"Male Sprague-Dawley rats": {"tested_on": "Male Sprague-Dawley rats", "experiment": "Fear potentiated startle paradigm", "assay_type": "in vivo", "settings": "rat", "description": "Male Sprague-Dawley rats weighing 325-400 g were purchased from Harlan Sprague-Dawley, Inc. (Cumberland, Ind.) and given a one week acclimation period before testing. Rats were individually housed with food and water ad libitum in an animal room on a 12-hour light/dark cycle with lights on between 6:00 A.M. and 6:00 P.M. […] Control rats were given the respective vehicle. The fear potentiated startle paradigm is conducted over three consecutive days. All three days begin with a 5-minute adaptation period before the trial starts. On day one (baseline startle) after the adaptation period, the animal receives 30 trials of 120 dB auditory noise. The mean startle amplitude (Vmax) is used to assign animals to groups with similar means before conditioning begins. Day two consists of conditioning the animals. Each animal receives 0.5 mA of shock for 500 msec preceded by a 5 second presentation of light which remains on for the duration of the shock. Ten presentations of the light and shock are administered. Day three is the testing trial where drug administration occurs prior to testing. Twenty-four hours after conditioning, startle testing sessions are conducted. Ten trials of acoustic startle (120 dB), non-light paired, are presented at the beginning of the session. This is followed by 20 random trials of the noise alone and 20 random trials of noise preceded by light. […] Data is presented as the difference between light+noise and noise-alone. Differences in startle response amplitudes were analyzed by JMP statistical software using a One-way Anova (analysis of variance, t-test). Group differences were considered to be significant at p<0.05. In the experiment shown below the compound of Example 16 was given i.p. 30 minutes prior to testing."}, "mGlu2 receptor [1]": {"biological_target": "T1, mGlu2 receptor (Homo sapiens, UniProt Q14416)", "T1 sequence (Q14416 19-872)": "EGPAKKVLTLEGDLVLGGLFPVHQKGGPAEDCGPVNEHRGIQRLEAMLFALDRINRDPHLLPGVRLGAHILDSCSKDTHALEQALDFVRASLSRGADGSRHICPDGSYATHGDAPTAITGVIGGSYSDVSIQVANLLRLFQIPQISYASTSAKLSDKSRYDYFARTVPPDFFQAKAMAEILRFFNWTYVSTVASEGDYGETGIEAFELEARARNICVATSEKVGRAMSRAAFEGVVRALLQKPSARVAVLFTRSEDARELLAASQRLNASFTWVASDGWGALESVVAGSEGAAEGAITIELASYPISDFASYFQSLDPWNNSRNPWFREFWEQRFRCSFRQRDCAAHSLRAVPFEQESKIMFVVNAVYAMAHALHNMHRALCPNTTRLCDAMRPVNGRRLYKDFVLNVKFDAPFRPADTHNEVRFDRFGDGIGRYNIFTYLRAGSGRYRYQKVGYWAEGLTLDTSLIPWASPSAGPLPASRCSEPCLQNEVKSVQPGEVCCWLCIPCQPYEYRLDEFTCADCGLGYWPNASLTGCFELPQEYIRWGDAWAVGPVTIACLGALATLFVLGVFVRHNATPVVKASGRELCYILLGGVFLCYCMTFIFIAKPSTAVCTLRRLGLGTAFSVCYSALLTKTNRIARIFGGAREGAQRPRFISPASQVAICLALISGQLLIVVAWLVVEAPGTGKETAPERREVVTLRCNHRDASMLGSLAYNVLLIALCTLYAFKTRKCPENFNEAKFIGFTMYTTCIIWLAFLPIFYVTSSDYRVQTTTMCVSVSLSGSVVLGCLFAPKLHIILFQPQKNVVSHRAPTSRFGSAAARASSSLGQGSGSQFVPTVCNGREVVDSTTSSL", "experiment": "[3H]-2S-2-Amino-2-(1S,2S-2-carboxycyclopropan-1-yl)-3-(xanth-9-yl) propionic acid receptor binding (displacement), membranes of mGlu2 receptor expressing RGT cells", "design": "expressed in transfected cells; host or cells: RGT cells (co-transfected with the rat glutamate/aspartate transporter GLAST); washed membranes", "settings": "displacement of 1 nM [3H]-2S-2-amino-2-(1S,2S-2-carboxycyclopropan-1-yl)-3-(xanth-9-yl)propionic acid; homogenates of mGlu2 receptor expressing cell line", "method": "Membranes from mGlu2 receptor expressing RGT cells were prepared by harvesting adherent cells from confluent T-150 flasks with a cell scraper. Cells and media were then placed in 50 ml conical tubes and centrifuged at 4° C. at 1000 g for 5 minutes. The supernatant was removed and the pellet was frozen at −10° C. until use. Washed cell membranes were prepared by adding 20 ml of 10 mM potassium phosphate buffer pH 7.6 @ 5° C.+100 mM potassium bromide and homogenizing with an Ultra-Turrax tissuemizer for 15 seconds at 90% output. The homogenate was centrifuged at 48,000×g for 10 minutes at 5° C. This last step was repeated two times, and the final pellet was resuspended in 10 ml of the same buffer and reserved on ice until initiating the binding assay.\nThe incubation was initiated by the addition of the membrane suspension, (about 15 μg membrane protein), and allowed to continue on ice for 30 min. Incubation was terminated by rapid filtration with a Brandel cell harvester through glass fiber Whatman GF/B filters pre-wet with the same potassium phosphate buffer assay buffer (at 4° C.). The filters were washed five times with 1 ml of buffer. Filter sections were transferred to minivials and 5 ml of Fisher Scientific ScintiSafe liquid scintillation cocktail was added to each vial. Vials were allowed to set for several hours prior to counting on a Beckman LS6000 liquid scintillation counter."}, "mGlu2 receptor [2]": {"biological_target": "T1, mGlu2 receptor", "experiment": "Potentiation of glutamate-induced increase in intracellular calcium with a mGluR2 expressing cell line (FLIPR)", "assay_type": "cell-based", "design": "expressed in transfected cells; host or cells: RGT cells (co-transfected with GLAST), stably transfected with Galpha15", "settings": "read-out: % Maximal Response (mean ± SD, n=2)", "description": "Potentiation of Glutamate-Induced Increase in Intracellular Calcium with a mGluR2 Expressing Cell Line.\nCell lines expressing human mGlu2 receptors were derived as previously described (Desai, Burnett, Mayne, Schoepp, Mol. Pharmacol. 48, 648-657, 1995) and cultured in DMEM with 5% dialyzed fetal bovine serum, 1 mM glutamine, 1 mM sodium pyruvate, 50 μg/ml Geneticin G418, and 0.2 mg/ml hygromycin B. Confluent cultures were passaged weekly. […] The RGT cell line expressing the mGluR2 receptors was stably transfected with the promiscuous G-protein, Galpha15 to change the signaling pathway to the mGlu2 receptor to one that could be easily measured through release of intracellular calcium. Thus, intracellular calcium levels were monitored before and after the addition of drugs on a Fluorometric Imaging Plate Reader (i.e. FLIPR, Molecular Devices). The following buffer was used throughout as an assay buffer: 10 mM KCl, 138 mM NaCl, 5 mM Ca Cl2, 1 mM MgCl2, 4 mM NaH2PO4, 10 mM Glucose, 10 mM HEPES, pH 7.4. Cells that had been plated 48 h prior at a density of 30-40,000 cells per well in a 96-well plate were loaded with a calcium-sensitive dye for 90 min at 25° C. Fluo-3 (2 mM in DMSO, Molecular Probes) were mixed with a equal volume of 10% pluronic acid in DMSO, and diluted to 8 μM into the buffer described above containing 10% fetal bovine serum to make the loading buffer. Following loading of the cells, the loading buffer was removed and replaced with assay buffer prior to drug addition and monitoring on the FLIPR."}, "[3]": {"tested_on": "Harlan Sprague-Dawley rats", "experiment": "Animal model of dural protein extravasation (trigeminal ganglion stimulation)", "assay_type": "in vivo", "settings": "rat, ratio stimulated/unstimulated side of dura", "description": "Harlan Sprague-Dawley rats (250-350 g) were anesthetized with sodium pentobarbital intraperitoneally (65 mg/kg) and placed in a stereotaxic frame (David Kopf Instruments) with the incisor bar set at −3.5 mm. Following a midline sagital scalp incision, two pairs of bilateral holes were drilled through the skull (6 mm posterially, 2.0 and 4.0 mm laterally, all coordinates referenced to bregma). Pairs of stainless steel stimulating electrodes, insulated except at the tips (Rhodes Medical Systems, Inc.), were lowered through the holes in both hemispheres to a depth of 9 mm. The femoral vein was exposed and a dose of the test compound was injected intravenously (i.v.) at a dosing volume of 1 ml/kg or, in the alternative, test compound was administered orally (p.o.) via gavage at a volume of 2 ml/kg. Approximately 8 minutes post i.v. injection, a 50 mg/kg dose of Evans Blue, a fluorescent dye, was also injected intravenously. The Evans Blue complexed with proteins in the blood and functioned as a marker for protein extravasation. […] Fifteen minutes following stimulation, the animals were killed and exsanguinated with 40 mL of saline. The top of the skull was removed to facilitate the collection of the dural membranes. The membrane samples were removed from both hemispheres, rinsed with water, and spread flat on microscopic slides. […] A fluorescence microscope (Zeiss) equipped with a grating monochromator and a spectrophotometer was used to quantify the amount of Evans Blue dye in each sample. An excitation wavelength of approximately 535 nm was utilized and the emission intensity at 600 nm was determined. The microscope was equipped with a motorized stage and also interfaced with a personal computer. This facilitated the computer-controlled movement of the stage with fluorescence measurements at 25 points ([…]) on each dural sample. The mean and standard deviation of the measurements were determined by the computer. The extravasation induced by the electrical stimulation of the trigeminal ganglion was an ipsilateral effect (i.e. occurs only on the side of the dura in which the trigeminal ganglion was stimulated). This allows the other (unstimulated) half of the dura to be used as a control. The ratio of the amount of extravasation in the dura from the stimulated side, over the amount of extravasation in the unstimulated side, was calculated."}}, "note": "Read-outs that look alike come from different tables or passages of the source. Marks after values point to notes of the source that are not given here."}
{"smiles": "COc1ccccc1Oc1ccc(N(Cc2cccnc2)S(=O)(=O)CC(F)(F)F)cc1", "note": "[Example 16, N-(4-(2-Methoxyphenoxy)phenyl)-N-(2,2,2-trifluoroethylsulfonyl)pyrid-3-ylmethylamine]", "values": [{"measurement": "Difference in Startle Amplitude (Vmax) + S.E.", "setting": "Male Sprague-Dawley rats; Exp. 1, 0.03 mg/kg i.p. 30 minutes prior to testing, light+noise minus noise-alone", "result": "108 + 41"}, {"measurement": "Difference in Startle Amplitude (Vmax) + S.E.", "setting": "Male Sprague-Dawley rats; Exp. 1, 0.3 mg/kg i.p. 30 minutes prior to testing", "result": "154 + 38"}, {"measurement": "Difference in Startle Amplitude (Vmax) + S.E.", "setting": "Male Sprague-Dawley rats; Exp. 1, 3.0 mg/kg i.p. 30 minutes prior to testing", "result": "21 + 24*"}, {"measurement": "Difference in Startle Amplitude (Vmax) + S.E.", "setting": "Male Sprague-Dawley rats; Exp. 2, 1.0 mg/kg i.p. 30 minutes prior to testing", "result": "120 + 87*"}, {"measurement": "Difference in Startle Amplitude (Vmax) + S.E.", "setting": "Male Sprague-Dawley rats; Exp. 2, 3.0 mg/kg i.p. 30 minutes prior to testing", "result": "148 + 86*"}, {"measurement": "Difference in Startle Amplitude (Vmax) + S.E.", "setting": "Male Sprague-Dawley rats; Exp. 2, 10.0 mg/kg i.p. 30 minutes prior to testing", "result": "105 + 91*"}, {"measurement": "Ki", "setting": "mGlu2 receptor [1]", "result": "> 100", "unit": "µM"}, {"measurement": "Emax", "setting": "mGlu2 receptor [2]; 8 nM Glutamate + 1 μM compound", "result": "2.8 ± 1.9", "unit": "%"}, {"measurement": "Emax", "setting": "mGlu2 receptor [2]; 24 nM Glutamate + 1 μM compound", "result": "0.1 ± 0.8", "unit": "%"}, {"measurement": "Emax", "setting": "mGlu2 receptor [2]; 80 nM Glutamate + 1 μM compound", "result": "0.3 ± 1.1", "unit": "%"}, {"measurement": "Emax", "setting": "mGlu2 receptor [2]; 240 nM Glutamate + 1 μM compound", "result": "17.4 ± 2.8", "unit": "%"}, {"measurement": "Emax", "setting": "mGlu2 receptor [2]; 800 nM Glutamate + 1 μM compound", "result": "62.9 ± 0.1", "unit": "%"}, {"measurement": "Emax at 1 µM", "setting": "mGlu2 receptor [2]; 1 μM compound, Buffer (no agonist), glutamate series 24 μM to 8 nM", "result": "1.6 ± 1", "unit": "%"}, {"measurement": "Emax", "setting": "mGlu2 receptor [2]; 2.4 μM Glutamate + 1 μM compound", "result": "92.5 ± 4.4", "unit": "%"}, {"measurement": "Emax", "setting": "mGlu2 receptor [2]; 8 μM Glutamate + 1 μM compound", "result": "98.4 ± 6.4", "unit": "%"}, {"measurement": "Emax", "setting": "mGlu2 receptor [2]; 24 μM Glutamate + 1 μM compound", "result": "95.4 ± 2.4", "unit": "%"}, {"measurement": "Extrav. Ratio ± s.e.m.", "setting": "[3]; 10 pg/kg i.v.", "result": "1.87 ± 0.07"}, {"measurement": "Extrav. Ratio ± s.e.m.", "setting": "[3]; 100 pg/kg i.v.", "result": "1.37 ± 0.07"}, {"measurement": "Extrav. Ratio ± s.e.m.", "setting": "[3]; 1 ng/kg i.v.", "result": "1.04 ± 0.05"}, {"measurement": "Extrav. Ratio ± s.e.m.", "setting": "[3]; 100 ng/kg i.v.", "result": "0.99 ± 0.004"}]}
